Measured values reported in the NIST ThermoML archive (doi:10.1016/j.jct.2012.02.023).
± gives the expanded uncertainty stated by the source.

Assay: xn = mol fraction of the nth substance listed
Conditions: 101 kPa, Liquid; for speed of sound: Sing-around technique in a fixed-path interferometer; for mass density: Vibrating tube method

## CCCC[n+]1cccc(C)c1.F[B-](F)(F)F [1-butyl-3-methylpyridinium tetrafluoroborate] + CCO
293.15 K, x1 = 0.0572
  speed of sound: 1206 ± 1.3 m/s
  mass density: 861.245 ± 0.42 kg/m3
293.15 K, x1 = 0.0964
  speed of sound: 1239.4 ± 1.3 m/s
  mass density: 900.833 ± 0.38 kg/m3
293.15 K, x1 = 0.1466
  speed of sound: 1281 ± 1.3 m/s
  mass density: 942.807 ± 0.33 kg/m3
293.15 K, x1 = 0.1964
  speed of sound: 1320 ± 1.4 m/s
  mass density: 977.495 ± 0.28 kg/m3
293.15 K, x1 = 0.2431
  speed of sound: 1355.1 ± 1.4 m/s
  mass density: 1004.66 ± 0.24 kg/m3
293.15 K, x1 = 0.2998
  speed of sound: 1390.6 ± 1.4 m/s
  mass density: 1032.24 ± 0.21 kg/m3
293.15 K, x1 = 0.3966
  speed of sound: 1442.7 ± 1.4 m/s
  mass density: 1069.96 ± 0.22 kg/m3
293.15 K, x1 = 0.4984
  speed of sound: 1484.2 ± 1.4 m/s
  mass density: 1100.02 ± 0.23 kg/m3
293.15 K, x1 = 0.5931
  speed of sound: 1515.9 ± 1.5 m/s
  mass density: 1122.42 ± 0.25 kg/m3
293.15 K, x1 = 0.691
  speed of sound: 1543.7 ± 1.5 m/s
  mass density: 1141.63 ± 0.28 kg/m3
293.15 K, x1 = 0.8022
  speed of sound: 1566.2 ± 1.5 m/s
  mass density: 1159.85 ± 0.32 kg/m3
293.15 K, x1 = 0.8923
  speed of sound: 1582.6 ± 1.6 m/s
  mass density: 1172.56 ± 0.35 kg/m3
293.15 K, x1 = 0.9517
  speed of sound: 1591.7 ± 1.6 m/s
  mass density: 1180.05 ± 0.37 kg/m3
303.15 K, x1 = 0.0572
  speed of sound: 1177 ± 1.3 m/s
  mass density: 852.837 ± 0.42 kg/m3
303.15 K, x1 = 0.0964
  speed of sound: 1212.4 ± 1.3 m/s
  mass density: 892.417 ± 0.39 kg/m3
303.15 K, x1 = 0.1466
  speed of sound: 1254.5 ± 1.3 m/s
  mass density: 934.902 ± 0.33 kg/m3
303.15 K, x1 = 0.1964
  speed of sound: 1294.8 ± 1.4 m/s
  mass density: 969.562 ± 0.28 kg/m3
303.15 K, x1 = 0.2431
  speed of sound: 1330 ± 1.4 m/s
  mass density: 996.702 ± 0.24 kg/m3
303.15 K, x1 = 0.2998
  speed of sound: 1365.5 ± 1.4 m/s
  mass density: 1024.76 ± 0.21 kg/m3
303.15 K, x1 = 0.3966
  speed of sound: 1417.4 ± 1.4 m/s
  mass density: 1062.42 ± 0.21 kg/m3
303.15 K, x1 = 0.4984
  speed of sound: 1459.2 ± 1.4 m/s
  mass density: 1092.8 ± 0.23 kg/m3
303.15 K, x1 = 0.5931
  speed of sound: 1491 ± 1.4 m/s
  mass density: 1115.36 ± 0.25 kg/m3
313.15 K, x1 = 0.0572
  speed of sound: 1146.5 ± 1.3 m/s
  mass density: 844.506 ± 0.43 kg/m3
313.15 K, x1 = 0.0964
  speed of sound: 1183.6 ± 1.3 m/s
  mass density: 884.287 ± 0.39 kg/m3
313.15 K, x1 = 0.1466
  speed of sound: 1228.4 ± 1.3 m/s
  mass density: 926.796 ± 0.33 kg/m3
313.15 K, x1 = 0.1964
  speed of sound: 1269.1 ± 1.4 m/s
  mass density: 961.571 ± 0.28 kg/m3
313.15 K, x1 = 0.2431
  speed of sound: 1304.6 ± 1.4 m/s
  mass density: 988.807 ± 0.24 kg/m3
313.15 K, x1 = 0.2998
  speed of sound: 1340.4 ± 1.4 m/s
  mass density: 1016.86 ± 0.21 kg/m3
313.15 K, x1 = 0.3966
  speed of sound: 1392.4 ± 1.4 m/s
  mass density: 1055 ± 0.21 kg/m3
313.15 K, x1 = 0.4984
  speed of sound: 1434.3 ± 1.4 m/s
  mass density: 1085.55 ± 0.23 kg/m3
313.15 K, x1 = 0.5931
  speed of sound: 1466.4 ± 1.4 m/s
  mass density: 1108.06 ± 0.24 kg/m3
313.15 K, x1 = 0.691
  speed of sound: 1494.9 ± 1.5 m/s
  mass density: 1127.5 ± 0.27 kg/m3
313.15 K, x1 = 0.8022
  speed of sound: 1517.2 ± 1.5 m/s
  mass density: 1145.95 ± 0.31 kg/m3
313.15 K, x1 = 0.8923
  speed of sound: 1534.7 ± 1.5 m/s
  mass density: 1158.84 ± 0.34 kg/m3
313.15 K, x1 = 0.9517
  speed of sound: 1543.7 ± 1.6 m/s
  mass density: 1166.44 ± 0.36 kg/m3
323.15 K, x1 = 0.0572
  speed of sound: 1116.4 ± 1.3 m/s
  mass density: 835.724 ± 0.43 kg/m3
323.15 K, x1 = 0.0964
  speed of sound: 1155.2 ± 1.3 m/s
  mass density: 875.61 ± 0.39 kg/m3
323.15 K, x1 = 0.1466
  speed of sound: 1202 ± 1.3 m/s
  mass density: 918.466 ± 0.34 kg/m3
323.15 K, x1 = 0.1964
  speed of sound: 1244.2 ± 1.4 m/s
  mass density: 953.451 ± 0.28 kg/m3
323.15 K, x1 = 0.2431
  speed of sound: 1279.3 ± 1.4 m/s
  mass density: 980.836 ± 0.24 kg/m3
323.15 K, x1 = 0.2998
  speed of sound: 1315.4 ± 1.4 m/s
  mass density: 1009.22 ± 0.21 kg/m3
323.15 K, x1 = 0.3966
  speed of sound: 1366.2 ± 1.4 m/s
  mass density: 1047.46 ± 0.21 kg/m3
323.15 K, x1 = 0.4984
  speed of sound: 1409.9 ± 1.4 m/s
  mass density: 1078.03 ± 0.22 kg/m3
323.15 K, x1 = 0.5931
  speed of sound: 1442.2 ± 1.4 m/s
  mass density: 1100.95 ± 0.24 kg/m3
323.15 K, x1 = 0.691
  speed of sound: 1471.2 ± 1.5 m/s
  mass density: 1120.36 ± 0.27 kg/m3
323.15 K, x1 = 0.8022
  speed of sound: 1493.8 ± 1.5 m/s
  mass density: 1138.97 ± 0.3 kg/m3
323.15 K, x1 = 0.8923
  speed of sound: 1511.3 ± 1.5 m/s
  mass density: 1151.94 ± 0.33 kg/m3
323.15 K, x1 = 0.9517
  speed of sound: 1519.5 ± 1.6 m/s
  mass density: 1159.62 ± 0.35 kg/m3
